In patent US4209443A, “Process for separating pharmaceutically active diindole alkaloids” (priority 1976, dated 1980):
Counter-ions that a name gives are not always drawn.

Legend:
[1] = Toxicity (LD50, i.p., mice); details: mouse, in vivo, ip
Novikoff hepatoma = experiment: Average survival prolongation and tumor-inhibiting effect, Novikoff hepatoma, i.p.; type: in vivo, rat (Wistar rats); details: for On the limit-day (days 36 to day 40): lives / On the limit-day (days 36 to day 40): tumor-free / T/c × 100 / Average survival period, treated: once a day, 8 treatments
Description: (§1) The pharmacological tests were performed on transplantable tumors of rats and mice. The effects on L 1210/VS(vinca-sensitive) mouse lymphoid leukemia and L 1210/Ref (vinca-refractory) mouse lymphoid leukemia were tested on BDF1 mice, the effects on Ehrlich ascites carcinomatous tumors and S 37 ascites sarcomatous tumors were examined on Swiss mice, whereas the effects on Novikoff hepatoma were examined on Wistar rats.
(§2) The 4-deacetoxy-vinblastine sulfate was dissolved in physiological saline and the solution was administered intraperitoneally into the animals to be tested. In the tests the average prolongation of survival period and the tumor-inhibiting effect were examined in relation to the untreated controls. In the Table the symbol T/c represents the ratio of treated animals to the controls, and the term "number of limit-days" means the fourfold of the average survival period observed in the control group.

[2] = test system: transplantable tumors of rats and mice; experiment: Tumor-inhibiting effect on transplantable tumors of rats and mice; type: in vivo
Description: as §1, §2

[3] = test system: L 1210/Ref (vinca-refractory) mouse lymphoid leukemia; experiment: Average survival prolongation and tumor-inhibiting effect, L 1210/Ref (vinca-refractory) lymphoid leukemia, i.p.; type: in vivo, mouse (BDF1 mice); details: for On the limit-day (days 36 to day 40): lives / On the limit-day (days 36 to day 40): tumor-free / T/c × 100 / Average survival period, treated: 7 treatments; for Average survival period, treated: control 8.0 days
Description: as §1, §2

mice = experiment: Toxicity (LD50, i.p., mice)
S 37 ascites sarcoma = experiment: Average survival prolongation and tumor-inhibiting effect, S 37 ascites sarcoma, i.p.; type: in vivo, mouse (Swiss mice); details: once a day, 8 treatments; for Average survival period, treated: control 18.2 days
Description: as §1, §2

[4] = test system: Ehrlich ascites carcinoma; experiment: Average survival prolongation and tumor-inhibiting effect, Ehrlich ascites carcinoma, i.p.; type: in vivo, mouse (Swiss mice); details: 3.0 mg/kg i.p., once a day, 9 treatments
Description: as §1, §2

[5] = test system: L 1210/VS (vinca-sensitive) mouse lymphoid leukemia; experiment: Average survival prolongation and tumor-inhibiting effect, L 1210/VS (vinca-sensitive) lymphoid leukemia, i.p.; type: in vivo, mouse (BDF1 mice)
Description: as §1, §2

HK/Ly ascites lymphoma = experiment: Average survival prolongation and tumor-inhibiting effect, HK/Ly ascites lymphoma, i.p.; type: in vivo; details: once a day, 8 treatments; for Average survival period, treated: control 14.4 days
Description: as §2

[6] = Neurotoxicity accompanied with paralytic symptoms; type: in vivo; details: during administration
[7] = test system: tumors resistant towards the cytostatic agents known before; details: Hungarian Patent specification No. 165,986; cited from earlier work
[8] = known vinca alkaloids; cited from earlier work
in vivo = details: mouse, ip
[9] = 0.9 mg/kg i.p., once a day, 7 treatments
[10] = 1.8 mg/kg i.p., once a day, 7 treatments
[11] = 2.0 mg/kg i.p., once a day, 16 treatments
[12] = 4.0 mg/kg i.p., once a day, 16 treatments
[13] = 4.0 mg/kg i.p., once in every two days, 8 treatments
[14] = 4.0 mg/kg i.p., once in every two days, 11 treatments
[15] = 5.0 mg/kg i.p., once in every two days, 8 treatments
[16] = 6.0 mg/kg i.p., once in every two days, 8 treatments
[17] = 4.0 mg/kg i.p., once in every two days

For `CC[C@]1(O)C[C@@H]2CN(CCc3c([nH]c4ccccc34)[C@@](C(=O)OC)(c3cc4c(cc3OC)N(C)[C@@H]3[C@]45CCN4CC=C[C@@](CC)(C[C@]3(O)C(=O)OC)[C@H]45)C2)C1` [4-Deacetoxy-vinblastine, 4-deacetoxy-vinblastine], the LD50 [1] was greater than 23 mg/kg, the “inhibiting effect on Novikoff hepatoma” value (Novikoff hepatoma; relative to the other transplanted tumors) was “most intensive” and the “inhibiting effect on all the other transplanted tumors” value ([2]; all transplanted tumors other than L 1210/Ref) was “significant dosage-dependent inhibiting effect”. The “sensitivity of L 1210/Ref leukemia” value ([3]; mouse, in vivo) was “not sensitive”.
For `CC[C@]1(O)C[C@@H]2CN(CCc3c([nH]c4ccccc34)[C@@](C(=O)OC)(c3cc4c(cc3OC)N(C)[C@@H]3[C@]45CCN4CC=C[C@@](CC)(C[C@]3(O)C(=O)OC)[C@H]45)C2)C1` [4-deacetoxy-vinblastine sulfate, 4-Deacetoxy-vinblastine sulfate], the “toxicity compared with vinblastine” value (mice; compared with vinblastine) was “far less toxic than vinblastine”, the “On the limit-day (days 36 to day 40): lives” value (“On the limit-day … lives” for short) (S 37 ascites sarcoma; 1.8 mg/kg i.p.) was 6/8 and the “On the limit-day (days 36 to day 40): tumor-free” value (shortened to “On the limit-day … tumor-free”) (S 37 ascites sarcoma; 1.8 mg/kg i.p.) was 6/8. For the same compound, the “T/c × 100” value (S 37 ascites sarcoma; 1.8 mg/kg i.p.) was 376, the “Average survival period, treated” value (S 37 ascites sarcoma; 1.8 mg/kg i.p.) was 68.5 days and the “On the limit-day … lives” value (S 37 ascites sarcoma; 2.7 mg/kg i.p.) was 7/10. For the same compound, the “On the limit-day … tumor-free” value (S 37 ascites sarcoma; 2.7 mg/kg i.p.) was 7/10, the “T/c × 100” value (S 37 ascites sarcoma; 2.7 mg/kg i.p.) was 373 and the “Average survival period, treated” value (S 37 ascites sarcoma; 2.7 mg/kg i.p.) was 67.9 days. For the same compound, the “On the limit-day … lives” value [4] was 10/10, the “On the limit-day … tumor-free” value [4] was 6/10 and the “T/c × 100” value [4] was 174. The “Average survival period, treated” value ([4]; control 17.4 days) was 30 days, the “On the limit-day … lives” value (Novikoff hepatoma; 0.5 mg/kg i.p.) was 0/6 and the “On the limit-day … tumor-free” value (Novikoff hepatoma; 0.5 mg/kg i.p.) was 0/6. For the same compound, the “T/c × 100” value (Novikoff hepatoma; 0.5 mg/kg i.p.) was 126, the “Average survival period, treated” value (Novikoff hepatoma; 0.5 mg/kg i.p., control 8.2 days) was 10.3 days and the “On the limit-day … lives” value (Novikoff hepatoma; 1.0 mg/kg i.p.) was 1/6. For the same compound, the “On the limit-day … tumor-free” value (Novikoff hepatoma; 1.0 mg/kg i.p.) was 1/6, the “T/c × 100” value (Novikoff hepatoma; 1.0 mg/kg i.p.) was 338 and the “Average survival period, treated” value (Novikoff hepatoma; 1.0 mg/kg i.p., control 8.2 days) was 27.7 days. For the same compound, the “On the limit-day … lives” value (Novikoff hepatoma; 1.5 mg/kg i.p.) was 2/6, the “On the limit-day … tumor-free” value (Novikoff hepatoma; 1.5 mg/kg i.p.) was 0/6 and the “T/c × 100” value (Novikoff hepatoma; 1.5 mg/kg i.p.) was 317. The “Average survival period, treated” value (Novikoff hepatoma; 1.5 mg/kg i.p., control 7.8 days) was 24.7 days, the “On the limit-day … lives” value [5, 9] was 0/6 and the “On the limit-day … tumor-free” value [5, 9] was 0/6. The “T/c × 100” value [5, 9] was 128, the “Average survival period, treated” value ([5]; 0.9 mg/kg i.p., once a day, 7 treatments, control 8.8 days) was 11.5 days and the “On the limit-day … lives” value [5, 10] was 0/6. For the same compound, the “On the limit-day … tumor-free” value [5, 10] was 0/6, the “T/c × 100” value [5, 10] was 128 and the “Average survival period, treated” value ([5]; 1.8 mg/kg i.p., once a day, 7 treatments, control 8.8 days) was 11.3 days. The “On the limit-day … lives” value [5, 11] was 0/6, the “On the limit-day … tumor-free” value [5, 11] was 0/6 and the “T/c × 100” value [5, 11] was 238. The “Average survival period, treated” value ([5]; 2.0 mg/kg i.p., once a day, 16 treatments, control 10.3 days) was 24.5 days, the “On the limit-day … lives” value [5, 12] was 0/6 and the “On the limit-day … tumor-free” value [5, 12] was 0/6. The “T/c × 100” value [5, 12] was 269, the “Average survival period, treated” value ([5]; 4.0 mg/kg i.p., once a day, 16 treatments, control 10.3 days) was 27.7 days and the “On the limit-day … lives” value [5, 13] was 0/6. For the same compound, the “On the limit-day … tumor-free” value [5, 13] was 0/6, the “T/c × 100” value [5, 13] was 213 and the “Average survival period, treated” value ([5]; 4.0 mg/kg i.p., once in every two days, 8 treatments, control 8.3 days) was 17.7 days. For the same compound, the “On the limit-day … lives” value [5, 14] was 0/6, the “On the limit-day … tumor-free” value [5, 14] was 0/6 and the “T/c × 100” value [5, 14] was 267. The “Average survival period, treated” value ([5]; 4.0 mg/kg i.p., once in every two days, 11 treatments, control 10.3 days) was 27.5 days, the “On the limit-day … lives” value [5, 15] was 0/6 and the “On the limit-day … tumor-free” value [5, 15] was 0/6. The “T/c × 100” value [5, 15] was 251, the “Average survival period, treated” value ([5]; 5.0 mg/kg i.p., once in every two days, 8 treatments, control 8.3 days) was 20.8 days and the “On the limit-day … lives” value [5, 16] was 0/6. The “On the limit-day … tumor-free” value [5, 16] was 0/6, the “T/c × 100” value [5, 16] was 291 and the “Average survival period, treated” value ([5]; 6.0 mg/kg i.p., once in every two days, 8 treatments, control 8.3 days) was 24.2 days. For the same compound, the “On the limit-day … lives” value (HK/Ly ascites lymphoma; 2.0 mg/kg i.p.) was 0/10, the “On the limit-day … tumor-free” value (HK/Ly ascites lymphoma; 2.0 mg/kg i.p.) was 0/10 and the “T/c × 100” value (HK/Ly ascites lymphoma; 2.0 mg/kg i.p.) was 334. The “Average survival period, treated” value (HK/Ly ascites lymphoma; 2.0 mg/kg i.p.) was 48.1 days, the “On the limit-day … lives” value (HK/Ly ascites lymphoma; 4.0 mg/kg i.p.) was 6/10 and the “On the limit-day … tumor-free” value (HK/Ly ascites lymphoma; 4.0 mg/kg i.p.) was 0/10. For the same compound, the “T/c × 100” value (HK/Ly ascites lymphoma; 4.0 mg/kg i.p.) was 382, the “Average survival period, treated” value (HK/Ly ascites lymphoma; 4.0 mg/kg i.p.) was 55.0 days and the “On the limit-day … lives” value (HK/Ly ascites lymphoma; 6.0 mg/kg i.p.) was 0/10. For the same compound, the “On the limit-day … tumor-free” value (HK/Ly ascites lymphoma; 6.0 mg/kg i.p.) was 0/10, the “T/c × 100” value (HK/Ly ascites lymphoma; 6.0 mg/kg i.p.) was 328 and the “Average survival period, treated” value (HK/Ly ascites lymphoma; 6.0 mg/kg i.p.) was 47.2 days. The “Neurotoxicity accompanied with paralytic symptoms” value [6] was “does not appear at all”, the “tumor-inhibiting effects compared with vinblastine” value ([2]; compared with vinblastine) was “roughly identical with those of vinblastine” and the “On the limit-day … lives” value ([3]; 2.0 mg/kg i.p., once a day) was 0/6. For the same compound, the “On the limit-day … tumor-free” value ([3]; 2.0 mg/kg i.p., once a day) was 0/6, the “T/c × 100” value ([3]; 2.0 mg/kg i.p., once a day) was 119 and the “Average survival period, treated” value ([3]; 2.0 mg/kg i.p., once a day) was 9.5 days. For the same compound, the “On the limit-day … lives” value ([3]; 4.0 mg/kg i.p., once a day) was 0/6, the “On the limit-day … tumor-free” value ([3]; 4.0 mg/kg i.p., once a day) was 0/6 and the “T/c × 100” value ([3]; 4.0 mg/kg i.p., once a day) was 144. For the same compound, the “Average survival period, treated” value ([3]; 4.0 mg/kg i.p., once a day) was 11.5 days, the “On the limit-day … lives” value [3, 17] was 0/6 and the “On the limit-day … tumor-free” value [3, 17] was 0/6. The “T/c × 100” value [3, 17] was 146 and the “Average survival period, treated” value [3, 17] was 11.7 days.
For `CC[C@]12CN3CCc4c([nH]c5ccccc45)[C@@](C(=O)OC)(c4cc5c(cc4OC)N(C=O)[C@H]4[C@@](O)(C(=O)OC)[C@H](OC(C)=O)[C@]6(CC)C=CCN7CC[C@]54[C@@H]76)C[C@@H](C3)[C@H]1O2` [N-Formyl-leurosine, reference compound], the LD50 (mice; i.p., mice) is given as 29.0 mg/kg and the “growth inhibition of tumors resistant towards the cytostatic agents known before” value [7] is given as “inhibits the growth of tumors resistant towards the cytostatic agents known before”.
For `CC[C@]1(O)C[C@@H]2CN(CCc3c([nH]c4ccccc34)[C@@](C(=O)OC)(c3cc4c(cc3OC)N(C)[C@H]3[C@@](O)(C(=O)OC)[C@H](OC(C)=O)[C@]5(CC)C=CCN6CC[C@]43[C@@H]65)C2)C1` [Vinblastine, vinblastine], the “Neurotoxicity accompanied with paralytic symptoms (known side-effect)” value [8] is given as “characteristic adverse side-effect” and the LD50 (in vivo) is given as 7.5 mg/kg.
In the case of `CC[C@]1(O)C[C@H]2CN(CCc3c([nH]c4ccccc34)[C@@](C(=O)OC)(c3cc4c(cc3OC)N(C=O)[C@H]3[C@@](O)(C(=O)OC)[C@H](OC(C)=O)[C@]5(CC)C=CCN6CC[C@]43[C@@H]65)C2)C1` [Vincristine, vincristine, reference compound], the LD50 [1] is given as 4.2 mg/kg and the “Neurotoxicity accompanied with paralytic symptoms (known side-effect)” value [8] is given as “characteristic adverse side-effect”.
